Data as given in US10039729B2, “Use of kukoamine A and kukoamine B” (Tianjin Chase Sun Pharmaceutical Co., Ltd., priority 2010, dated 2018).

Experiments:
[1] = system: murine peritoneal macrophages; experiment: Release of TNF-α and IL-6 in murine peritoneal macrophages induced by LPS and CpG DNA (ELISA); type: cell-based, KM mice; details: 50, 100 and 200 μM, TNF-α at 4 h, IL-6 at 12 h
Procedure: Separation and culture of murine peritoneal macrophages: KM mice were killed by cervical dislocation and immediately immersed in 75% ethanol for skin degerming; then abdominal skin was aseptically cut open; precooling DMEM cell culture medium was slowly injected in exposed peritoneum with a 5 ml syringe; murine abdomen was gently massaged for sufficient cell collection; subsequently, DMEM was withdrew, transferred into 10 ml centrifuge tube, centrifuged at 500 rpm for 5 min, resuspended in DMEM supplemented with 10% (v/v) NCS, transferred into cell culture bottle, and then cultured at 37° C. in a 5% CO2 humidified incubator for 2 h; culture medium was replaced with fresh culture medium to remove unattached cells; over 95% of the remained cells were murine peritoneal macrophages, which continued to be cultured and proliferated.
Loading and detection: According to the method in embodiment 6, KB and PMB were separately diluted in DMEM supplemented with 10% (v/v) NCS and transferred into culture medium of […] to achieved final concentrations of 50, 100 and 200 μM; RAW264.7 cells continued to be incubated; the supernatant was collected four hours later for TNF-α detection; the supernatant at were collected 12 hours later for IL-6 detection; the concentration of TNF-α and IL-6 of each group was detected according to the manufacturer's instructions of ELISA kit; result was expressed by means of mean±standard deviation.

[2] = Affinity biosensor binding with immobilized lipid A; details: 100 μM operating solution, 5 μl loaded
Description: Immobilization of lipid A and CpG DNA: Using Optically-Based Affinity Biosensors technology, Lipid A, the biologic active centres of LPS, and CpG DNA were respectively, immobilized on the reacting surfaces of cuvettes in an IAsys plus affinity biosensor according to the manufacturer's instructions of IAsys Affinity Sensor. The end of hydrophobic side chain of lipid A was immobilized on cuvette with hydrophobic surface, and the phosphate group (active group of lipid A) at the other end was floating and exposing to the outside, which act as target spot of binding with active constituents for disease treatment in traditional Chinese medicine. The active constituents in solution were binded to lipid A through electrostatic interaction. […]
2.1.1 Methods: 500 g Lycii cortex was added with 5 L distilled water, soaked for 24 h, boiled at 100 for 1 h, filtered by coarse filter paper, and centrifuged at 8000 rpm/min for 30 min, and the supernatant was collected and concentrated to 1 L under reduced pressure. […] Their binding activity with lipid A and CpG DNA were detected according to methods of embodiment 1. […]
3.1 Methods: KA and KB were separately dissolved to make 100 μM operating solution; 5 μl of the solution was loaded; their binding activity with lipid A and CpG DNA were detected according to methods of embodiment 1.

Molecule | release of TNF-α and IL-6 induced by CpG DNA [1] | release of TNF-α and IL-6 induced by LPS [1] | affinity with lipid A [2]
NCCCN(CCCCNCCCNC(=O)CCc1ccc(O)c(O)c1)C(=O)CCc1ccc(O)c(O)c1 [KB, Kukoamine B] | inhibit the release of TNF-α and IL-6 | inhibit the release of TNF-α and IL-6 | high affinity
polymyxin B [PMB, reference compound] | can only inhibit the release of TNF-α and IL-6 induced by LPS | inhibit the release of TNF-α and IL-6 | –
O=C(CCc1ccc(O)c(O)c1)NCCCNCCCCNCCCNC(=O)CCc1ccc(O)c(O)c1 [KA, Kukoamine A] | – | – | high affinity
